In data set [1] the test system is white blood cell number, red blood cell number, platelet number. Nature of the data set: Evaluation of blood cell number in mouse. The data set is classed as in vivo. The following applies: oral, Day 2 after administration. As to the method:
Evaluation of Blood Cell Number in Mouse
(§1) Male ICR mice (hereinafter mice) were acclimated for at least one week in a rearing facility. The mice were raised in a rearing room with controlled temperature and humidity under a 12:12 hour light-dark cycle, and allowed free ingestion of feed and water.
The compounds were suspended in 0.5% methylcellulose/0.02% citric acid/distilled water and orally administered. All compounds were administered to the mice at a dose of 1 mg/kg, 10 mg/kg, 50 mg/kg or 100 mg/kg (body weight). On Day 2 after the administration of the compound, the whole blood was collected.
Using Sysmex XT-1800i (Sysmex Corporation), the white blood cell number, red blood cell number, and platelet number in the collected whole blood per unit volume were measured. The influence of each compound on each blood cell number was determined by comparing the number with the mean of each blood cell number of the mouse without administration of the compound (control group), and the numerical value of each blood cell number of a mouse with the administration of the compound is shown in percentage. percentage (%) of blood cell number of compound administration group as compared to control group=(mean blood cell number of compound administration group mean blood cell number of compound non-administration group)×100

Data set [2] is described as follows: Evaluation of hippocampal distribution in mouse. Type of data set: in vivo. The following applies: male ICR mice, 10 mg/kg oral; for concentration at 1 h / Kp at 1 h: 1 hr after administration; for Kp at 1 h / Kp at 0.5 h: hippocampus/plasma, read-out: hippocampus/plasma concentration ratio (mean); for concentration at 0.5 h / Kp at 0.5 h: 0.5 hr after administration. How it is done:
Evaluation of Hippocampal Distribution in Mouse
as §1
The compounds were suspended in 0.5% methylcellulose/0.02% citric acid/distilled water and orally administered. All compounds were administered to the mice at a dose of 10 mg/kg (body weight).
Blood samples were collected at 0.5 hr, or 1 hr, or 1.5 hr from compound administration, and the hippocampus was isolated simultaneously. The plasma concentration and hippocampus concentration of each test compound were measured by the LC/MS/MS method, the ratio (hippocampus/plasma concentration ratio) was calculated, and distribution into hippocampus was evaluated.

Setting [3] is: hippocampus, read-out: hippocampus concentration (mean).
The mark [4] stands for this setting: plasma, read-out: plasma concentration (mean).

Structures are written as SMILES. Structures can show the parent of a compound that is named as a salt. Where two headings read alike, the source gives them in different places.

On to `O=C(NC1CC(F)(F)C1)c1cccc([C@@H]2C[C@H]2NC2CCC(F)(F)CC2)c1` (relative stereo) [Example 234, N-(3,3-difluorocyclobutyl)-3-(trans-2-((4,4-difluorocyclohexyl)amino)cyclopropyl)benzamide hydrochloride], for which, in data set [1] (10 mg/kg), the “platelet number, percentage of compound administration group compared to control group, mean” value (“platelet number, percentage” for short) is 98.8%; the “red blood cell number, percentage of compound administration group compared to control group, mean” value (from here on “red blood cell number, percentage”) turned out to be 97.7%; the “white blood cell number, percentage of compound administration group compared to control group, mean” value (“white blood cell number, percentage” below) is recorded as 76.7%. In addition, in data set [1] (100 mg/kg), the “platelet number, percentage” value was 88.9%; the “red blood cell number, percentage” value worked out at 101.2%; the “white blood cell number, percentage” value came out at 94.8%. In addition, in data set [2] (setting [3]), the concentration at 1 h was 276 ng/g. In data set [2], the Kp at 1 h stood at 1.58. Moreover, the concentration at 1 h in data set [2] (setting [4]) came to 0.175 µg/mL.
For `Cn1cc(NC(=O)c2cccc([C@@H]3C[C@H]3NC3CCC(F)(F)CC3)c2)cn1` (relative stereo) [Example 205, 3-(trans-2-((4,4-difluorocyclohexyl)amino)cyclopropyl)-N-(1-methyl-1H-pyrazol-4-yl)benzamide dihydrochloride], in data set [1] (10 mg/kg), the “platelet number, percentage” value stood at 114.7%; the “red blood cell number, percentage” value is recorded as 97.8%; the “white blood cell number, percentage” value is given as 81.6%. For the same compound, in data set [1] (100 mg/kg), the “platelet number, percentage” value worked out at 110.8%; the “red blood cell number, percentage” value is 104.0%; the “white blood cell number, percentage” value was 80.9%. Also, in data set [2] (setting [3]), the concentration at 1 h worked out at 437 ng/g. The Kp at 1 h in data set [2] was determined as 0.47. Besides, the concentration at 1 h in data set [2] (setting [4]) is 0.92 µg/mL.
Regarding `O=C(NC1CCOCC1)c1cccc([C@@H]2C[C@H]2NCC2CC2)c1` (relative stereo) [Example 100, 3-(trans-2-((cyclopropylmethyl)amino)cyclopropyl)-N-(tetrahydro-2H-pyran-4-yl)benzamide hydrochloride], the “platelet number, percentage” value was determined as 98.1% in data set [1] (10 mg/kg) and 91.0% in data set [1] (100 mg/kg). Further, the “red blood cell number, percentage” value in data set [1] (10 mg/kg) is 92.9%; in data set [1] (100 mg/kg) it was 98.8%. In addition, the “white blood cell number, percentage” value came to 99.4% in data set [1] (10 mg/kg) and 104.8% in data set [1] (100 mg/kg). Moreover, the concentration at 0.5 h in data set [2] (setting [3]) is 207 ng/g; in data set [2] (setting [4]), 0.889 µg/mL. Further, the Kp at 0.5 h in data set [2] is 0.24.
As for `Cc1cc(NC(=O)c2cccc([C@@H]3C[C@H]3NC3CCC3)c2)no1` (relative stereo) [Example 232, 3-(trans-2-(cyclobutylamino)cyclopropyl)-N-(5-methyl-1,2-oxazol-3-yl)benzamide hydrochloride], in data set [1] (10 mg/kg), the “platelet number, percentage” value amounted to 102.4%; the “red blood cell number, percentage” value is on record as 100.4%; the “white blood cell number, percentage” value stood at 97.3%. In data set [1] (100 mg/kg), the “platelet number, percentage” value was determined as 93.5%; the “red blood cell number, percentage” value turned out to be 99.3%; the “white blood cell number, percentage” value is 92.4%. Also, in data set [2] (setting [3]), the concentration at 1 h was determined as 572 ng/g. Besides, the Kp at 1 h in data set [2] turned out to be 3.66. The concentration at 1 h in data set [2] (setting [4]) stood at 0.154 µg/mL.
Take `Cc1cc(NC(=O)c2cccc([C@@H]3C[C@H]3NCC3CC3)c2)n(C)n1` (relative stereo) [Example 107, 3-(trans-2-((cyclopropylmethyl)amino)cyclopropyl)-N-(1,3-dimethyl-1H-pyrazol-5-yl)benzamide dihydrochloride]: in data set [1] (10 mg/kg), the “platelet number, percentage” value is 95.4%; the “red blood cell number, percentage” value is reported as 98.4%; the “white blood cell number, percentage” value was 86.6%. In addition, in data set [1] (100 mg/kg), the “platelet number, percentage” value amounted to 91.1%; the “red blood cell number, percentage” value is 102.2%; the “white blood cell number, percentage” value is on record as 132.7%. For the same compound, the concentration at 0.5 h in data set [2] (setting [3]) worked out at 242 ng/g. For the same compound, in data set [2], the Kp at 0.5 h was 0.09. In addition, in data set [2] (setting [4]), the concentration at 0.5 h was found to be 2.56 µg/mL.
Consider `O=C(NC1CCOCC1)c1cccc([C@@H]2C[C@H]2NC2CCC(F)(F)CC2)c1` (relative stereo) [Example 178, 3-(trans-2-((4,4-difluorocyclohexyl)amino)cyclopropyl)-N-(tetrahydro-2H-pyran-4-yl)benzamide hydrochloride], for which the “platelet number, percentage” value is 90.2% in data set [1] (10 mg/kg) and 85.2% in data set [1] (100 mg/kg). Also, the “red blood cell number, percentage” value was found to be 98.5% in data set [1] (10 mg/kg) and 98.9% in data set [1] (100 mg/kg). Moreover, the “white blood cell number, percentage” value in data set [1] (10 mg/kg) is reported as 93.2%; in data set [1] (100 mg/kg), 84.5%. Moreover, the concentration at 0.5 h in data set [2] (setting [3]) came out at 546 ng/g; in data set [2] (setting [4]) it was 1.05 µg/mL. For the same compound, the Kp at 0.5 h in data set [2] came to 0.52.
As for `O=C(NC1CC(F)(F)C1)c1cc([C@@H]2C[C@H]2NCC2CC2)ccc1F` (relative stereo) [Example 241, 5-(trans-2-((cyclopropylmethyl)amino)cyclopropyl)-N-(3,3-difluorocyclobutyl)-2-fluorobenzamide hydrochloride], the figures for the “platelet number, percentage” value in data set [1] (10 mg/kg) and in data set [1] (100 mg/kg) were 102.6% and 89.2%, respectively. The “red blood cell number, percentage” value in data set [1] (10 mg/kg) worked out at 96.9%; in data set [1] (100 mg/kg), 99.0%. Also, the “white blood cell number, percentage” value in data set [1] (10 mg/kg) stood at 94.6%; in data set [1] (100 mg/kg) it was 101.9%. Further, the results for the concentration at 0.5 h in data set [2] (setting [3]) and in data set [2] (setting [4]) were 878 ng/g and 0.167 µg/mL, respectively. Besides, the Kp at 0.5 h in data set [2] turned out to be 5.31.
For `Cc1nnc(NC(=O)c2cccc([C@@H]3C[C@H]3NC3CCC(F)(F)CC3)c2)s1` (relative stereo) [Example 167, 3-(trans-2-((4,4-difluorocyclohexyl)amino)cyclopropyl)-N-(5-methyl-1,3,4-thiadiazol-2-yl)benzamide hydrochloride], in data set [1] (10 mg/kg), the “platelet number, percentage” value worked out at 105.3%; the “red blood cell number, percentage” value was found to be 102.5%; the “white blood cell number, percentage” value was determined as 86.4%. Also, in data set [1] (100 mg/kg), the “platelet number, percentage” value worked out at 103.2%; the “red blood cell number, percentage” value is recorded as 102.4%; the “white blood cell number, percentage” value is 68.2%. Moreover, in data set [2] (setting [3]), the concentration at 1 h is 915 ng/g. Besides, the Kp at 1 h in data set [2] was found to be 0.74. Also, in data set [2] (setting [4]), the concentration at 1 h was 1.23 µg/mL.

The values above are taken from patent publication US9751885B2, “Cyclopropanamine compound and use thereof” (Takeda Pharmaceutical Company Limited, priority 2012, dated 2017).
